Article PMC5390258, “CMD-05, a novel promising clinical anti-diabetic drug candidate, in vivo and vitro studies” (Scientific Reports, 2017)

Experiments:
[1] = Body weight of model rats; type: in vivo, rat; conditions: 30 days treatment
Experimental: (§1) To establish model of T2DM, male rats (80–100 g, 9-week-old)[49] were fed high fat diet (HFD) (20% sugar, 10% lard, 10% egg yolk and 60% basal feed) after a week of normal diet. After 4 weeks, rats were injected once with low-dose streptozotocin (Solarbio, China) (STZ, 30 mg/kg i.p) to induce partial insulin deficiency, and then continuously fed HFD for 4 weeks after injection of STZ. Then the model rats were oral administrated drugs for 30 days. The body weights were recorded once a week.

TG, LDL-C = assay: TG and LDL-C plasma levels in model rats; type: in vivo, rat; conditions: 3 mg/kg
Experimental: as §1
(§2) Oral glucose load, fasted and random blood samples were collected from rats on the 28th days, the 29th days and the last of the treatment of drugs, respectively. Plasma levels of insulin and GLP-1 were measured by ELISA kits (YuanYe, China) according to the manufacturer’s recommendation. The levels of HbA1c, Triglycerides (TG), total cholesterol (TC) and low density lipoprotein cholesterol (LDL-C) in blood samples were measured by commercial assay kits (JianCheng, Nanjing, China) according to the manufacturer’s directions.

NCI-H716 cells = assay: GLP-1 secretion in NCI-H716 cells; type: cell-based, human; conditions: 10, 30, 100 μM, 2 h, compared with solvent group
Experimental: Human enteroendocrine NCI-H716 cells were maintained in suspension culture as described by the American Type Culture Collection guideline (ATCC). Two days before the experiments, cells were seeded into 12-well culture plates coated with Matrigel at 1 × 10^6 cells per well. Cells were incubated in RPMI 1640 containing 10% FBS at 37 °C for 48 h. […] After incubated for 2 h, GLP-1 concentrations from the supernatants were measured by ELISA kits (YuanYe, China).

insulin = assay: Plasma insulin levels in model rats (ELISA); type: in vivo, rat; conditions: 3 mg/kg, fasted and glucose load plasma
Experimental: as §1, §2

[2] = tested on: model rats (HFD/low-dose STZ, T2DM); assay: Oral glucose tolerance test (OGTT) in HFD/STZ T2DM model rats; type: in vivo, rat; conditions: 3 mg/kg oral, model rats
Experimental: as §1
On the 1st day, 19th days and 29th days of treatment, oral glucose tolerance tests for model rats were carried out. […] The blood glucose levels were tested using Johnson one touch Ultra Test Strips on Johnson Performa blood glucose meter.

HbA1c = HbA1c level in blood of model rats; type: in vivo, rat; conditions: 3 mg/kg, 30 days
Experimental: as §1, §2

pancreatic islets = assay: Morphologic observation on islet of model rats (HE, immunofluorescence, TEM); type: in vivo, rat
Experimental: HE staining on paraffin section was performed as described in reports. In brief, paraffin section were rinsed with PBS, fixed with 4% paraformaldehyde (PFA) for 30 min and then washed by PBS. The pancreas tissue were stained with Hematoxylin-Eosin, afterwards, they were dehydrated in alcohols. Morphological changes of the pancreas tissue were observed under an optical microscope (Olympus, Japan) after mounted by neutral resins.
Pancreas sections (8 μm) were cut in a cryostat and collected on superfrost microscope slides. The slides were stored at −20 °C till analysis. Immunofluorescent staining was used for detection of insulin (β cells) (1:100, Anti-Insulin antibody, Abcam), glucagon (α cells) (1:200, Anti-glucagon, Abcam). Briefly, the slides were blocked in 5% normal goat serum for 1 h in a humidified chamber. Slides were exposed to primary antibodies at a dilution of […] in antibody diluting solution at 4 °C overnight, washed in PBS, and exposed to appropriate secondary antibodies linked to the fluorescent probes (Goat Anti-Guinea pig IgG/FITC and Alexa Fluor 594-conjugated Goat Anti-Rabbit IgG) (Bioss and Proteintech, China) in antibody diluting solution for 1 h and DAPI (Beyotime, China) for 5 min in the dark. After washed by PBS, slides were mounted with a glycerol mounting medium. Images were collected using a fluorescent microscope (Nikon, Japan).
For transmission electron microscopy, about 1 mm^3 tissue specimens were obtained from the same pancreas region of the control and experimental groups of rats, and fixed overnight in 2% glutaraldehyde (pH7.3) in 0.1 M phosphate buffer saline at 4 °C. Images of pancreatic islets were captured from random tissue sections using a transmission electron microscope.

INS-1 cells = assay: Proliferation of INS-1 cells (CCK-8); type: cell-based, rat; conditions: 24 h, CCK-8, vs DMSO
Experimental: The rat insulinoma cell line INS-1 (832/13) was obtained from the Department of endocrinology at 1st affiliated hospital of Chongqing medical university. Cells were cultured in RPMI 1640 (Gibco, USA) (11 mmol/l glucose, 100 units/ml penicillin, […] streptomycin, 10 mmol/l HEPES pH 7.4) supplemented with 10% FBS (Gibco, USA), 2 mmol/l L-glutamine, 1 mmol/l pyruvate, and 50 μmol/l β-mercaptoethanol. […] 10 μl of CCK-8 was then added and incubated at 37 °C and 5% CO2 for 1.5 h and […] (OD) was read at 460 nm with microplate reader. The OD value represents the proliferation activity.

With `N#C[C@@H]1CCCN1C(=O)CNC12CC3CC(CC(O)(C3)C1)C2` [vildagliptin, reference compound] the “body weights vs model group” value [1] was “no significant difference”, the “reduction of LDL-C level” value (TG, LDL-C) was 15.97% and the “reduction of TG level” value (TG, LDL-C) was 38.79%. The “GLP-1 levels (secretion)” value (NCI-H716 cells) was “increased slightly without significance”, the “insulin levels in plasma” value (insulin) was “significantly increased” and the “percentage reduction of blood glucose levels in OGTT” value (shortened to “percentage reduction”) ([2]; 1st day) was 8.9%. The “percentage reduction” value ([2]; 19th day) was 10.1%, the “percentage reduction” value ([2]; 29th day) was 17.8% and the “reduction of the level of HbA1c” value (HbA1c) was 2.0%. The “distribution of β cells (insulin/glucagon double staining)” value (pancreatic islets; 30 days treatment) was “obviously improved”, the “mass of α-cells (insulin/glucagon double staining)” value (pancreatic islets; 30 days treatment) was “mildly reduced” and the “morphology of pancreatic islets (HE staining)” value (pancreatic islets; 30 days treatment) was “prevent islet from damage”. For the same compound, the “secretory granules in β cells (transmission electron microscopy)” value (pancreatic islets; compared with the model) was “obviously increased” and the “cells viabilities (proliferation) of INS-1 cells” value (INS-1 cells) was “increased”.
